Results from patent publication US9738655B2, “Tetrahydroisoquinolines containing substituted azoles as factor XIa inhibitors” (BRISTOL-MYERS SQUIBB COMPANY, priority 2013, dated 2017).
Counter-ions that a name gives are not always drawn.

Legend:
[1] = biological target: purified human plasma kallikrein (Homo sapiens (Human), UniProt P03952); assay: Plasma kallikrein enzyme inhibition assay (chromogenic substrate S-2302); format: biochemical
[2] = biological target: purified human Factor XIa (Homo sapiens (Human), UniProt P03951); assay: Factor XIa enzyme inhibition assay (chromogenic substrate S-2366); conditions: read-out: Factor XIa Ki; measured at 25° C.
purified human Factor XIa, sequence (P03951 388-625): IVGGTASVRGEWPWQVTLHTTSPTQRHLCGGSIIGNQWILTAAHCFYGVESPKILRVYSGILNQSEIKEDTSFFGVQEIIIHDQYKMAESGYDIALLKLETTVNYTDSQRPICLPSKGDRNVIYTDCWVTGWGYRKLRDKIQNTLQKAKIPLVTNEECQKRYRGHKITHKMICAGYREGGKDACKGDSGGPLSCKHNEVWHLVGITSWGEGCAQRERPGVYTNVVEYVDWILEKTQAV
purified human Factor XIa, sequence (P03951 19-387 partner): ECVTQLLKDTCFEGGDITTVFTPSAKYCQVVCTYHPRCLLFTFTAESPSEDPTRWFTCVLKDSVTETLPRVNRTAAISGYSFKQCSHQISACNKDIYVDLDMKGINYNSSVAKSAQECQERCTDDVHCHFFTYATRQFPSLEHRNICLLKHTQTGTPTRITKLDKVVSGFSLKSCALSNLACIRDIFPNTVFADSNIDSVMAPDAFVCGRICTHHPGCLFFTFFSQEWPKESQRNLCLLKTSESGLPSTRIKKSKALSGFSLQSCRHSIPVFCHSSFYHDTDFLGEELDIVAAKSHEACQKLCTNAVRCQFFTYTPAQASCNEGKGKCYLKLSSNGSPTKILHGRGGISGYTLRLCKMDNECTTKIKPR

purified human plasma kallikrein, sequence (P03952 391-638): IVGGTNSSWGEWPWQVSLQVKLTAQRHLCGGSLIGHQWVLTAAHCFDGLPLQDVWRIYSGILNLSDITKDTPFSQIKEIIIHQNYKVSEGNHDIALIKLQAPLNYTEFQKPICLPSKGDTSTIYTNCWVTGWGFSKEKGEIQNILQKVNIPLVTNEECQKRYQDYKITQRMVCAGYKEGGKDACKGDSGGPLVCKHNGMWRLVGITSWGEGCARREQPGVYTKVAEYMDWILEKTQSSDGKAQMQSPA
purified human plasma kallikrein, sequence (P03952 20-390 partner): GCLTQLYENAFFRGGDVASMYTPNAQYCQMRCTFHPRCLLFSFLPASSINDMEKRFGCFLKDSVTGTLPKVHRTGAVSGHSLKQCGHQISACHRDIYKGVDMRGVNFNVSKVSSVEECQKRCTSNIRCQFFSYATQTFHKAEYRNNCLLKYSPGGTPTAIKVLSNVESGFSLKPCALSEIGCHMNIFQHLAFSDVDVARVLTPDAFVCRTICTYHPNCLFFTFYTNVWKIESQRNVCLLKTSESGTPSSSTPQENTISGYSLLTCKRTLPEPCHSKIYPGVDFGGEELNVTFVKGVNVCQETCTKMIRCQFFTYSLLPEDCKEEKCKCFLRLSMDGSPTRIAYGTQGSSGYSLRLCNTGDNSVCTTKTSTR

SMILES | Ki ([1]; measured at 37° C. (*)) | Ki [2] | Ki ([1]; measured at 25° C. (no asterisk))
COC1CCN(c2cccc3c2CCN(C(=O)c2cn(-c4cccc(Cl)c4F)nn2)[C@@H]3C(=O)Nc2ccc(CO)cc2)CC1 [Example 122, (S)-2-(1-(3-Chloro-2-fluorophenyl)-1H-1,2,3-triazole-4-carbonyl)-N-(4-(hydroxymethyl)phenyl)-5-(4-methoxypiperidin-1-yl)-1,2,3,4-tetrahydroisoquinoline-1-carboxamide] | 0.0998 µM | 0.0168 µM | –
O=C(O)c1ccc(NC(=O)C2c3cccc(OC4COC4)c3CCN2C(=O)c2cn(-c3cccc(Cl)c3F)nn2)cc1 (centres unmarked) [Example 123, 4-(2-(1-(3-Chloro-2-fluorophenyl)-1H-1,2,3-triazole-4-carbonyl)-5-(oxetan-3-yloxy)-1,2,3,4-tetrahydroisoquinoline-1-carboxamido)benzoic acid] | 0.0211 µM | 0.00769 µM | –
CC1(COc2cccc3c2CCN(C(=O)c2cn(-c4cccc(Cl)c4F)nn2)C3C(=O)Nc2ccc(C(=O)O)cc2)COC1 (centres unmarked) [Example 124, 4-(2-(1-(3-Chloro-2-fluorophenyl)-1H-1,2,3-triazole-4-carbonyl)-5-((3-methyloxetan-3-yl)methoxy)-1,2,3,4-tetrahydroisoquinoline-1-carboxamido)benzoic acid] | 0.0362 µM | < 0.005 µM | –
O=C(Nc1ccc(-c2ncc[nH]2)cc1)C1c2cccc(-c3cncnc3)c2CCN1C(=O)c1cn(-c2cccc(Cl)c2F)nn1 (centres unmarked) [Example 126, N-(4-(1H-imidazol-2-yl)phenyl)-2-(1-(3-chloro-2-fluorophenyl)-1H-1,2,3-triazole-4-carbonyl)-5-(pyrimidin-5-yl)-1,2,3,4-tetrahy-droisoquinoline-1-carboxamide, TFA salt] | 0.094 µM | < 0.005 µM | –
O=C(Nc1ccc(-c2cc[nH]n2)cc1)C1c2cccc(-c3cncnc3)c2CCN1C(=O)c1cn(-c2cccc(Cl)c2F)nn1 (centres unmarked) [Example 127, N-(4-(1H-pyrazol-3-yl)phenyl)-2-(1-(3-chloro-2-fluorophenyl)-1H-1,2,3-triazole-4-carbonyl)-5-(pyrimidin-5-yl)-1,2,3,4-tetrahydroisoquinoline-1-carboxamide, TFA salt] | 0.196 µM | < 0.005 µM | –
COC(=O)c1ccc2cc(NC(=O)C3c4cccc(-c5cncnc5)c4CCN3C(=O)c3cn(-c4cccc(Cl)c4F)nn3)ccc2n1 (centres unmarked) [Example 128, methyl 6-(2-(1-(3-chloro-2-fluorophenyl)-1H-1,2,3-triazole-4-carbonyl)-5-(pyrimidin-5-yl)-1,2,3,4-tetrahydroisoquinoline-1-carboxamido) quinoline-2-carboxylate, TFA salt] | 0.0653 µM | < 0.005 µM | –
O=C(O)c1ccc2cc(NC(=O)C3c4cccc(-c5cncnc5)c4CCN3C(=O)c3cn(-c4cccc(Cl)c4F)nn3)ccc2n1 (centres unmarked) [Example 129, 6-(2-(1-(3-chloro-2-fluorophenyl)-1H-1,2,3-triazole-4-carbonyl)-5-(pyrimidin-5-yl)-1,2,3,4-tetrahydroisoquinoline-1-carboxamido) quinoline-2-carboxylic acid, TFA salt] | 0.034 µM | < 0.005 µM | –
O=C(Nc1ccc2cnccc2c1)C1c2cccc(-c3cncnc3)c2CCN1C(=O)c1cn(-c2cccc(Cl)c2F)nn1 (centres unmarked) [Example 130, 2-(1-(3-chloro-2-fluorophenyl)-1H-1,2,3-triazol-4-carbonyl)-N-(isoquinolin-6-yl)-5-(pyrimidin-5-yl)-1,2,3,4-tetrahydroisoquinoline-1-carboxamide, TFA salt] | 0.126 µM | 0.0283 µM | –
O=C(Nc1ccc(-c2ncn[nH]2)cc1)C1c2cccc(-c3cncnc3)c2CCN1C(=O)c1cn(-c2cccc(Cl)c2F)nn1 (centres unmarked) [Example 131, N-(4-(1H-1,2,4-triazol-5-yl)phenyl)-2-(1-(3-chloro-2-fluorophenyl)-1H-1,2,3-triazole-4-carbonyl)-5-(pyrimidin-5-yl)-1,2,3,4-tetrahydroisoquinoline-1-carboxamide, TFA salt] | 0.0603 µM | < 0.005 µM | –
COC(=O)[C@H]1CC[C@@H](NC(=O)C2c3cccc(-c4cncnc4)c3CCN2C(=O)c2cn(-c3cccc(Cl)c3F)nn2)CC1 (stereo partly drawn) [Example 132, (1R,4R)-methyl 4-(2-(1-(3-chloro-2-fluorophenyl)-1H-1,2,3-triazole-4-carbonyl)-5-(pyrimidin-5-yl)-1,2,3,4-tetrahydroisoquinoline-1-carboxamido) cyclohexanecarboxylate] | 1.62 µM | 0.124 µM | –
O=C(Nc1ccc(-c2ncc[nH]2)cc1)[C@@H]1c2cccc(-c3cncnc3)c2CCN1C(=O)[C@H]1CC(c2cccc(Cl)c2F)=NO1 [Example 134, (S)-N-(4-(1H-Imidazol-2-yl)phenyl)-2-((R)-3-(3-chloro-2-fluorophenyl)-4,5-dihydroisoxazole-5-carbonyl)-5-(pyrimidin-5-yl)-1,2,3,4-tetrahydroisoquinoline-1-carboxamide, TFA salt] | 0.0244 µM | < 0.005 µM | –
O=C(Nc1ccc(-c2ncc[nH]2)cc1)[C@H]1c2cccc(-c3cncnc3)c2CCN1C(=O)[C@H]1CC(c2cccc(Cl)c2F)=NO1 [Example 135, (R)-N-(4-(1H-imidazol-2-yl)phenyl)-2-((R)-3-(3-chloro-2-fluorophenyl)-4,5-dihydroisoxazole-5-carbonyl)-5-(pyrimidin-5-yl)-1,2,3,4-tetrahydroisoquinoline-1-carboxamide TFA salt] | 0.399 µM | < 0.005 µM | –
Cc1c(C(=O)N2CCc3c(-c4cncnc4)cccc3C2C(=O)Nc2ccc(-c3ncc[nH]3)cc2)ncn1-c1cccc(Cl)c1F (centres unmarked) [Example 136, N-(4-(1H-Imidazol-2-yl)phenyl)-2-(1-(3-chloro-2-fluorophenyl)-5-methyl-1H-imidazole-4-carbonyl)-5-(pyrimidin-5-yl)-1,2,3,4-tetrahydroisoquinoline-1-carboxamide, 2 TFA salt] | 0.157 µM | 0.00697 µM | –
O=C(Nc1ccc(-c2ncc[nH]2)cc1)C1c2cccc(-c3cncnc3)c2CCN1C(=O)c1cn(-c2cccc(Cl)c2F)cn1 (centres unmarked) [Example 137, N-(4-(1H-Imidazol-2-yl)phenyl)-2-(1-(3-chloro-2-fluorophenyl)-1H-imidazole-4-carbonyl)-5-(pyrimidin-5-yl)-1,2,3,4-tetrahydroisoquinoline-1-carboxamide, 2 TFA] | 0.0534 µM | < 0.005 µM | –
O=C(Nc1ccc(-c2ncc[nH]2)cc1)[C@@H]1c2cccc(-c3cncnc3)c2CCN1C(=O)c1cn(-c2cccc(Cl)c2F)nn1 [Example 138, (S)-N-(4-(1H-Imidazol-2-yl)phenyl)-2-(1-(3-chloro-2-fluorophenyl)-1H-1,2,3-triazole-4-carbonyl)-5-(pyrimidin-5-yl)-1,2,3,4-tetrahydroisoquinoline-1-carboxamide, TFA salt] | 0.0259 µM | < 0.005 µM | –
O=C(Nc1ccc(-c2ncc[nH]2)cc1)[C@H]1c2cccc(-c3cncnc3)c2CCN1C(=O)c1cn(-c2cccc(Cl)c2F)nn1 [Example 139, (R)-N-(4-(1H-Imidazol-2-yl)phenyl)-2-(1-(3-chloro-2-fluorophenyl)-1H-1,2,3-triazole-4-carbonyl)-5-(pyrimidin-5-yl)-1,2,3,4-tetrahydroisoquinoline-1-carboxamide, TFA salt] | > 13 µM | 0.133 µM | –
COC1CCN(c2cccc3c2CCN(C(=O)c2nnn(-c4cccc(Cl)c4F)c2C)C3C(=O)Nc2ccc(-c3ncc[nH]3)cc2)CC1 (centres unmarked) [Example 140, N-(4-(1H-Imidazol-2-yl)phenyl)-2-(1-(3-chloro-2-fluorophenyl)-5-methyl-1H-1,2,3-triazole-4-carbonyl)-5-(4-methoxypiperidin-1-yl)-1,2,3,4-tetrahydroisoquinoline-1-carboxamide, 2 TFA salt] | 2.37 µM | 0.0397 µM | –
COC1CCN(c2cccc3c2CCN(C(=O)c2cn(-c4cccc(Cl)c4F)nn2)C3C(=O)Nc2ccc(-c3ncc[nH]3)cc2)CC1 (centres unmarked) [Example 141, N-(4-(1H-Imidazol-2-yl)phenyl)-2-(1-(3-chloro-2-fluorophenyl)-1H-1,2,3-triazole-4-carbonyl)-5-(4-methoxypiperidin-1-yl)-1,2,3,4-tetrahydroisoquinoline-1-carboxamide, 2 TFA] | 0.161 µM | 0.00595 µM | –
O=C(NC12CCC(C(=O)O)(CC1)CC2)C1c2cccc(-c3cncnc3)c2CCN1C(=O)c1cn(-c2cccc(Cl)c2F)nn1 (centres unmarked) [Example 143, 4-(2-{[1-(3-Chloro-2-fluorophenyl)-1H-1,2,3-triazol-4-yl]carbonyl}-5-(pyrimidin-5-yl)-1,2,3,4-tetrahydroisoquinoline-1-amido)bicyclo[2.2.2]octane-1-carboxylic acid, 1 TFA] | 0.237 µM | 0.00523 µM | –
COC1CCN(c2cccc3c2CCN(C(=O)c2cc(C)n(-c4ccc(Cl)cc4)c2C)C3C(=O)Nc2ccc(C(=O)O)cc2)CC1 (centres unmarked) [Example 147, 4-(2-(1-(4-chlorophenyl)-2,5-dimethyl-1H-pyrrole-3-carbonyl)-5-(4-methoxypiperidin-1-yl)-1,2,3,4-tetrahydroisoquinoline-1-carboxamido)benzoic acid, TFA salt] | > 6 µM | 2.69 µM | –
COC1CCN(c2cccc3c2CCN(C(=O)c2cnn(-c4cccc(Cl)c4)c2C(F)(F)F)C3C(=O)Nc2ccc(C(=O)O)cc2)CC1 (centres unmarked) [Example 150, 4-(2-(1-(3-chlorophenyl)-5-(trifluoromethyl)-1H-pyrazole-4-carbonyl)-5-(4-methoxypiperidin-1-yl)-1,2,3,4-tetrahydroisoquinoline-1-carboxamido)benzoic acid, TFA salt] | > 6 µM | 2.6 µM | –
COc1ncccc1-c1cccc2c1CCN(C(=O)c1cn(-c3cccc(Cl)c3F)nn1)C2C(=O)Nc1ccc(C(=O)O)cc1 (centres unmarked) [Example 153, 4-(2-(1-(3-chloro-2-fluorophenyl)-1H-1,2,3-triazole-4-carbonyl)-5-(2-methoxypyridin-3-yl)-1,2,3,4-tetrahydroisoquinoline-1-carboxamido)benzoic acid, TFA salt] | – | 0.00573 µM | 0.0622 µM
